Measurements as given in PubChem BioAssay (NCI).
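At the GI50, growth is halved. TGI is the concentration that stops growth completely.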

How the values were obtained:
Assay in all cases: NCI-60 cell line screen, 384-well format
[1] = system: 786-0 renal
[2] = system: A498 renal
[3] = system: A549 NSCLC
[4] = system: BT-549 breast
[5] = system: CAKI-1 renal
[6] = system: CCRF-CEM leukemia
[7] = system: COLO 205 colon
[8] = system: EKVX NSCLC
[9] = system: HCT-116 colon
[10] = system: HL-60(TB) leukemia
[11] = system: HS 578T breast
[12] = system: HT29 colon
[13] = system: IGROV1 ovarian
[14] = system: K-562 leukemia
[15] = system: KM12 colon
[16] = system: LOX IMVI melanoma
[17] = system: M14 melanoma
[18] = system: MALME-3M melanoma
[19] = system: MCF7 breast
[20] = system: MDA-MB-435 melanoma
[21] = system: MDA-MB-468 breast
[22] = system: NCI-H23 lung
[23] = system: NCI-H460 NSCLC
[24] = system: NCI-H522 lung
[25] = system: OVCAR-3 ovarian
[26] = system: OVCAR-4 ovarian
[27] = system: OVCAR-5 ovarian
[28] = system: PC-3 prostate
[29] = system: RPMI-8226 leukemia
[30] = system: RXF 393 renal
[31] = system: SF-268 CNS
[32] = system: SF-295 CNS
[33] = system: SF-539 CNS
[34] = system: SK-MEL-2 melanoma
[35] = system: SK-MEL-28 melanoma
[36] = system: SK-MEL-5 melanoma
[37] = system: SK-OV-3 ovarian
[38] = system: SN12C renal
[39] = system: SNB-19 CNS
[40] = system: SR leukemia
[41] = system: SW-620 colon
[42] = system: T-47D breast
[43] = system: TK-10 renal
[44] = system: U251 glioblastoma
[45] = system: UACC-257 melanoma
[46] = system: UACC-62 melanoma
[47] = system: UO-31 renal

CS(=O)(=O)CCNCc1ccc(-c2ccc3ncnc(Nc4ccc(OCc5cccc(F)c5)c(Cl)c4)c3c2)o1 showed a GI50 [1] of 1340 nM, a TGI [1] of 2620 nM and a GI50 [2] of 1260 nM. It also gave a TGI [2] of 2520 nM, a GI50 [3] of 1360 nM and a TGI [3] of 2690 nM. The GI50 [4] was 1650 nM, the TGI [4] was 3010 nM and the GI50 [5] was 1460 nM. The TGI [5] was 2970 nM, the GI50 [6] was 1680 nM and the TGI [6] was 3050 nM. For the same compound, the GI50 [7] was 3780 nM, the TGI [7] was 9050 nM and the GI50 [8] was 777 nM. It also gave a TGI [8] of 3130 nM, a GI50 [9] of 1850 nM and a TGI [9] of 3450 nM. It also gave a GI50 [10] of 2260 nM, a TGI [10] of 3730 nM and a GI50 [11] of 1970 nM. It also gave a TGI [11] of 3480 nM, a GI50 [12] of 1850 nM and a TGI [12] of 3270 nM. The GI50 [13] was 751 nM, the TGI [13] was 2870 nM and the GI50 [14] was 1690 nM. It also gave a TGI [14] of 3070 nM, a GI50 [15] of 2210 nM and a TGI [15] of 3720 nM. The GI50 [16] was 1800 nM, the TGI [16] was 3210 nM and the GI50 [17] was 1930 nM. The TGI [17] was 3350 nM, the GI50 [18] was 1830 nM and the TGI [18] was 3230 nM. The GI50 [19] was 1670 nM, the TGI [19] was 3060 nM and the GI50 [20] was 4970 nM. It also gave a TGI [20] of 9250 nM, a GI50 [21] of 45.2 nM and a TGI [21] of 260 nM. For the same compound, the GI50 [22] was 2070 nM, the TGI [22] was 4070 nM and the GI50 [23] was 1860 nM. For the same compound, the TGI [23] was 3290 nM, the GI50 [24] was 102 nM and the TGI [24] was 1480 nM. It also gave a GI50 [25] of 1580 nM, a TGI [25] of 2960 nM and a GI50 [26] of 1720 nM. The TGI [26] was 3190 nM, the GI50 [27] was 2740 nM and the TGI [27] was 7500 nM. The GI50 [28] was 1750 nM, the TGI [28] was 3280 nM and the GI50 [29] was 1850 nM. For the same compound, the TGI [29] was 3250 nM, the GI50 [30] was 1460 nM and the TGI [30] was 2790 nM. For the same compound, the GI50 [31] was 2630 nM, the TGI [31] was 6970 nM and the GI50 [32] was 1960 nM. For the same compound, the TGI [32] was 3850 nM, the GI50 [33] was 1820 nM and the TGI [33] was 3220 nM. For the same compound, the GI50 [34] was 1600 nM, the TGI [34] was 2960 nM and the GI50 [35] was 1800 nM. For the same compound, the TGI [35] was 3210 nM, the GI50 [36] was 1770 nM and the TGI [36] was 3160 nM. The GI50 [37] was 785 nM, the TGI [37] was 5170 nM and the GI50 [38] was 2160 nM. It also gave a TGI [38] of 7100 nM, a GI50 [39] of 4430 nM and a TGI [39] of 9080 nM. The GI50 [40] was 2090 nM, the TGI [40] was 3530 nM and the GI50 [41] was 1990 nM. For the same compound, the TGI [41] was 3500 nM, the GI50 [42] was 605 nM and the TGI [42] was 5690 nM. The GI50 [43] was 644 nM, the TGI [43] was 4500 nM and the GI50 [44] was 1840 nM. It also gave a TGI [44] of 3350 nM, a GI50 [45] of 1990 nM and a TGI [45] of 3420 nM. The GI50 [46] was 1950 nM, the TGI [46] was 3430 nM and the GI50 [47] was 1090 nM. For the same compound, the TGI [47] was 3890 nM.
